Laboratory results reported in patent US20230117205A1, “B7-H4 ANTIBODY-DRUG CONJUGATES FOR THE TREATMENT OF CANCER” (SEAGEN INC., priority 2021, published 2023).

Key:
[1] = system: MDA-MB-468 xenograft model; experiment: MDA-MB-468 xenograft, Study MDAMB468-6; assay type: in vivo, NSG mice; settings: 3 mg/kg, three weekly doses, i.p.
Experimental: Tumor volume was measured twice weekly until study day 80.
(§1) Female NSG mice were implanted with 1×10^6 MDA-MB-468 cells in 25% Matrigel H C (Corning #354248) subcutaneously. Once tumor volumes reached 100 mm^3, mice were randomized into treatment groups of 5 mice each and dosed with 0.3, 1, or 3 mg/kg every seven days for three total doses (q7dx3). Twenty-four hours prior to receiving each ADC dose, each animal was treated with 10 mg/kg hIVIG (Grifolds). Tumor volumes were measured twice per week, animals were euthanized when tumor volume reached 700-1000 mm^3. Stock concentrations of ADC were diluted to desired concentration (with 0.01% Tween20 in PBS) and injected i.p. into each treatment group

[2] = system: MDA-MB-468 xenograft model; experiment: MDA-MB-468 xenograft dose range, Study MDAMB468-9; assay type: in vivo, NSG mice; settings: three weekly doses
Experimental: Tumor volume was measured twice weekly until study day 85.
as §1, with “implanted with 1×10^6MDA-MB-468 cells in” for “implanted with 1×10^6 MDA-MB-468 cells in”, “each treatment group.” for “each treatment group”

HCC1569 xenograft model = experiment: HCC1569 xenograft, Study HCC1569-2; assay type: in vivo, NSG mice; settings: 3 mg/kg, three weekly doses, i.p.
Experimental: Tumor volume was measured once or twice weekly until study day 71.
Female NSG mice were implanted with 1×10^6HCC1569 tumor cells in 25% Matrigel H C (Corning #354248) subcutaneously. Once tumor volumes reached 100 mm^3, mice were randomized into treatment groups of 5 mice each and dosed with 3 mg/kg of ADC every seven days for three total doses (q7dx3). Each mouse was treated with 10 mg/kg hIVIG (Grifolds) twenty-four hours prior to receiving each ADC dose. Tumor volumes were measured 1-3 times per week, and animals were euthanized when tumor volume reached 700-1000 mm^3. Stock concentrations of ADC were diluted to a desired concentration (with 0.01% Tween20 in PBS) and injected i.p. into each treatment group.

[3] = system: B7-H4 expression on OVCAR3 tumors; experiment: IHC of B7-H4 on treated OVCAR3 xenograft tumors; assay type: in vivo, SCID mice; settings: OVCAR3 tumors after treatment
Experimental: Antigen retrieval was performed using a Decloaking Chamber NxGen Biocare and the 110° C. program with Diva Retrieval solution. Slides were stained on the IntelliPath Automated stainer per the following protocol: Remove hot containers from the decloaking chamber and rinse in deionized water. Place slides in TBST prior to adding to IntelliPath. Hydrate slides on stainer prior to automation Add 300 uL/slide Peroxidaze (Biocare #PX968) and incubate 10 minutes. Wash slides in TBST. Add 300 uL/slide Sniper block (Biocare #B5966) and incubate 10 minutes. Blot off blocking solution. Add 300 uL/slide primary antibody and incubate 1 hour. Wash slides twice in TBST. Add 300 uL/slide HRP polymer and incubate 30 minutes. Wash slides twice in TBST. Add 300 uL/slide DAB (Vector #sk-4103) and incubate 5 minutes. Wash in TBST. Add 300 uL/slide hematoxylin and incubate 2 minutes. Wash in deionized water. Dehydrate slides by placing them in the oven for 30 minutes. Place coverslip on slides. Images were analyzed using Halo image analysis software (Indica Labs). The H-score was calculated according to the following equation: (3×% Strong Signal)+(2×% Moderate Signal)+(Weak Signal). […]

HR+ BC PDX models = experiment: HR+ breast cancer patient-derived xenograft models; assay type: in vivo, mice; settings: for % TGI: 3 mg/kg q7dx3, vs untreated
Experimental: Specifically, Stock mice were bilaterally implanted with fragments from one of the Champions TumorGraft® models representing human HR^+ BC or ovarian cancer. After the tumors reached 1000-1500 mm^3, they were harvested, and the tumor fragments were implanted subcutaneously (s.c.) in the left flank of the female study mice. Each animal was implanted with a specific passage lot and documented. Tumor growth was monitored twice a week using digital calipers, and the tumor volume (TV) was calculated using the formula (0.52×[length×width^2]). When the TV reached approximately 150-300 mm^3, animals were matched by tumor size and assigned into control (untreated) or treatment groups (n=3 animals/group). Each animal in the treatment groups was dosed with 3 mg/kg of ADC every seven days for three total doses (q7dx3). […]
(§2) Inhibition of tumor growth was determined by calculating the percent TGI on the day at which animals in the control group were terminated (100%×[1−(final MTV−initial MTV of a treated group)/(final MTV−initial MTV of the control group)]). Treatment started on Day 0.

[4] = system: Ovarian carcinoma PDX models; experiment: Ovarian carcinoma patient-derived xenograft models; assay type: in vivo, mice; settings: 3 mg/kg q7dx3; for % TGI: vs untreated
Experimental: Tumor size and body weight were measured twice weekly, and the study was terminated when tumors in the control group reached 1500 mm^3 or up to Day 28, whichever occurred first, or maximum up to Day 60.
Specifically, Stock mice were bilaterally implanted with fragments from one of the Champions TumorGraft® models representing human HR^+ BC or ovarian cancer. After the tumors reached 1000-1500 mm^3, they were harvested, and the tumor fragments were implanted subcutaneously (s.c.) in the left flank of the female study mice. Each animal was implanted with a specific passage lot and documented. Tumor growth was monitored twice a week using digital calipers, and the tumor volume (TV) was calculated using the formula (0.52×[length×width^2]). When the TV reached approximately 150-300 mm^3, animals were matched by tumor size and assigned into control (untreated) or treatment groups (n=3 animals/group). Each animal in the treatment groups was dosed with 3 mg/kg of ADC every seven days for three total doses (q7dx3). Tumor size and body weight were measured twice weekly, and the study was terminated when tumors in the control group reached 1500 mm^3 or up to Day 28, whichever occurred first, or maximum up to Day 60.
as §2

For “SGN-B7H4V: ADC of fully human IgG1 anti-B7-H4 mAb conjugated to monomethyl auristatin E (MMAE) via a protease-cleavable valine-citrulline linker (vedotin)”, the “anti-tumor activity (tumor volume)” value [1] was “transient regression of tumor volumes in all mice”, the “anti-tumor activity (tumor volume)” value ([2]; 0.3 mg/kg) was “minimal anti-tumor activity” and the “anti-tumor activity (tumor volume)” value ([2]; 1 mg/kg) was “transient regression of tumor volumes in all mice”. For the same substance, the “anti-tumor activity (tumor volume)” value ([2]; 3 mg/kg) was “transient regression of tumor volumes in all mice”, the “anti-tumor activity (tumor volume)” value (HCC1569 xenograft model) was “robust tumor growth delay” and the “impact on tumor B7-H4 expression” value [3] was “did not have a significant impact”. The “PDX models with antitumor activity” value (HR+ BC PDX models; HR+ BC, 3 mg/kg, 3 weekly doses) was “⅙”, the “% TGI” value (HR+ BC PDX models; HR+ BC_1, Day 38) was 7% and the “% TGI” value (HR+ BC PDX models; HR+ BC_2, Day 34) was 79%. The “% TGI” value (HR+ BC PDX models; HR+ BC_3, Day 16) was 28%, the “% TGI” value (HR+ BC PDX models; HR+ BC_4, Day 59) was 12% and the “% TGI” value (HR+ BC PDX models; HR+ BC_5, Day 59) was 11%. The “% TGI” value (HR+ BC PDX models; HR+ BC_6, Day 62) was 16%, the “% TGI” value ([4]; Ovarian_1, Day 48) was 110% and the “% TGI” value ([4]; Ovarian_2, Day 41) was 103%. For the same substance, the “% TGI” value ([4]; Ovarian_3, Day 53) was 84%, the “% TGI” value ([4]; Ovarian_4, Day 52) was −57% and the “% TGI” value ([4]; Ovarian_5, Day 36) was 83%. For the same substance, the “% TGI” value ([4]; Ovarian_6, Day 23) was −33% and the “PDX models with tumor regression or tumor growth delay (e.g. TGI>50%)” value ([4]; ovarian carcinoma) was 4/6.
